Measured values from publication PMC11284788, “NN1213 – A Potent, Long-Acting, and Selective Analog of Human Amylin” (Journal of Medicinal Chemistry, 2024).
≈ marks a conversion by molar mass, not a printed value. Read-outs that look alike come from different tables or passages of the source. Numbered stars: 1 amine (or outer) side, 2 acyl side, 3 side chain; on linkers, the order of the positions; unused ones are H or OH. Bridge positions count the residues as written; N and C are the ends. Side chains are listed from the residue outwards. Peptide text beside a SMILES is read from it. * marks the point of attachment. C20 diacid = O=C(O)CCCCCCCCCCCCCCCCCCC(=O)*; γGlu = O=C(O)[C@H](CCC(=O)[*:2])N[*:1]

How the values were obtained:
[1] = Solubility versus pH profile
hAMY3R = biological target: T1, hAMY3R (Homo sapiens, UniProt O60896+P30988); assay: cAMP-responsive element luciferase reporter assay, human AMY3R; format: cell-based; set-up: expressed in transfected cells; conditions: for EC50: luciferase (human receptor assay); for ratio hCTR/hAMY3R: ratio of luciferase EC50 values
T1 sequence (P30988 25-474): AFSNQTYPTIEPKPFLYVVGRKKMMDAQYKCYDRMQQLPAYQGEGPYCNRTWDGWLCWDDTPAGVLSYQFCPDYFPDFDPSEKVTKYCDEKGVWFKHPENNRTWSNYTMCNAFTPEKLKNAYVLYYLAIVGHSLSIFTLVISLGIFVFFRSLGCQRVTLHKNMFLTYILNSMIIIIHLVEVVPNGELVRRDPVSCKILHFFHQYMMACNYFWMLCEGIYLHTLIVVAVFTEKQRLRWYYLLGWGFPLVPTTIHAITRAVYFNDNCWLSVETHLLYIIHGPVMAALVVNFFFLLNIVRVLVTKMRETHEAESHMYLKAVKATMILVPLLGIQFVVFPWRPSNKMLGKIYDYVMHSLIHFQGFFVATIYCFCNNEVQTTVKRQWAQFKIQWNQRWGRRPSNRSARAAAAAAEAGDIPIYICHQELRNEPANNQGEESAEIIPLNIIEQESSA
T1 sequence (O60896 24-148 partner): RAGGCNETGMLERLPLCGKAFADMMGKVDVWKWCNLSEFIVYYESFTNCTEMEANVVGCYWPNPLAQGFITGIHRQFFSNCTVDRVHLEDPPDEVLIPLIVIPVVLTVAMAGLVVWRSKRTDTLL

rAMY3R = biological target: T2, rAMY3R (Rattus norvegicus, UniProt P32214+Q9JJ73); assay: scintillation proximity binding assay, rAMY3R membranes; set-up: expressed in transfected cells; host or cells: BHK tk-ts 13, transient co-transfection (FuGENE 6); conditions: for ratio rCTR/rAMY3R: ratio of binding IC50 values
T2 sequence (P32214 25-479 isoform P32214-2 limits assumed): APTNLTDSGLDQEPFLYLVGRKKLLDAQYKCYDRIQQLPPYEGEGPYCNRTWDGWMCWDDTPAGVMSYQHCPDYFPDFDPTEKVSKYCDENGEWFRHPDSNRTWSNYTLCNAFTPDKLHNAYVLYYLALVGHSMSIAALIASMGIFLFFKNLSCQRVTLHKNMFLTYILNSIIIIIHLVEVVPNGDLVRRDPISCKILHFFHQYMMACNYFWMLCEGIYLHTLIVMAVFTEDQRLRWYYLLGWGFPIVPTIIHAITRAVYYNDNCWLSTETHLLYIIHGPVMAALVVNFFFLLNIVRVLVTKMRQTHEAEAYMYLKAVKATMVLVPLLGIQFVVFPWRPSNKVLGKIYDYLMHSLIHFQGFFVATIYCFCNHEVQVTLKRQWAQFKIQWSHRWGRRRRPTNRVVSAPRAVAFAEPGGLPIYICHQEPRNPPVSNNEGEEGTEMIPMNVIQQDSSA
T2 sequence (Q9JJ73 23-147 partner): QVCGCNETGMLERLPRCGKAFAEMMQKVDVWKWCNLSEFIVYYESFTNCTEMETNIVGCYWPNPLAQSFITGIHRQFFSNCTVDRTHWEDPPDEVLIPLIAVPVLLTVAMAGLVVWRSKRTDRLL

[2] = bis-tris-propane buffer, pH 6, aqueous buffer
[3] = bis-tris-propane buffer, pH 6.5, aqueous buffer
[4] = bis-tris-propane buffer, pH 7, aqueous buffer
[5] = bis-tris-propane buffer, pH 7.5, aqueous buffer
[6] = bis-tris-propane buffer, pH 8, aqueous buffer
[7] = lactate buffer, pH 4, aqueous buffer
[8] = lactate buffer, pH 5, aqueous buffer
[9] = Tables S12 and S14, read-out: hAMY3R pEC50 (converted)
[10] = BHK cells stably expressing hCTR+RAMP3 and CRE-luciferase, 3 h, 37 °C, 10% FBS, read-out: hAMY3R EC50
[11] = SPA binding assay, Tables S13 and S15, read-out: rAMY3R pIC50 (converted)
[12] = SPA, BHK cell membranes, 125I-rat amylin, 120 min 25 °C, read-out: rAMY3R IC50

Structure (SMILES)	solubility kinetic [1, 2] [µM]	solubility kinetic [1, 3] [µM]	solubility kinetic [1, 4] [µM]	solubility kinetic [1, 5] [µM]	solubility kinetic [1, 6] [µM]	solubility kinetic [1, 7] [µM]	solubility kinetic [1, 8] [µM]	EC50 (hAMY3R; [9]) [nM]	EC50 (hAMY3R; [10]) [nM]	ratio hCTR/hAMY3R (hAMY3R)	IC50 (rAMY3R; [11]) [nM]	IC50 (rAMY3R; [12]) [nM]	ratio rCTR/rAMY3R (rAMY3R)
CC[C@H](C)[C@H](NC(=O)[C@@H]1CCCN1C(=O)CNC(=O)[C@H](Cc1ccccc1)NC(=O)[C@H](CC(N)=O)NC(=O)[C@@H]1CCCN1C(=O)[C@H](CO)NC(=O)[C@H](CO)NC(=O)[C@H](Cc1c[nH]cn1)NC(=O)[C@H](CCCNC(=N)N)NC(=O)[C@H](CC(C)C)NC(=O)[C@H](Cc1ccccc1)NC(=O)[C@H](CC(=O)O)NC(=O)[C@H](C)NC(=O)[C@H](CC(C)C)NC(=O)[C@H](CCCNC(=N)N)NC(=O)[C@H](CCC(N)=O)NC(=O)[C@@H](NC(=O)[C@H](C)NC(=O)[C@@H]1CSSC[C@H](NC(=O)[C@@H](N)CCCCNC(=O)CC[C@H](NC(=O)CC[C@H](NC(=O)CCCCCCCCCCCCCCCCCCC(=O)O)C(=O)O)C(=O)O)C(=O)N[C@@H](CC(N)=O)C(=O)N[C@@H]([C@@H](C)O)C(=O)N[C@@H](C)C(=O)N[C@@H]([C@@H](C)O)C(=O)N1)[C@@H](C)O)C(=O)N[C@@H](CC(C)C)C(=O)N[C@@H](CO)C(=O)N[C@@H](CO)C(=O)N[C@H](C(=O)N[C@@H](CC(N)=O)C(=O)N[C@H](C(=O)NCC(=O)N[C@@H](CO)C(=O)N[C@@H](CC(=O)O)C(=O)N[C@H](C(=O)N[C@@H](Cc1ccc(O)cc1)C(N)=O)[C@@H](C)O)C(C)C)[C@@H](C)O [Peptide 3] (H-K([γGlu-γGlu-C20 diacid])CNTATCATQRLADFLRHSSPNFGPILSSTNVGSDTY-NH2; disulfide 2-7)	1 (≈ 4.55 µg/mL)	1 (≈ 4.55 µg/mL)	1 (≈ 4.55 µg/mL)	1 (≈ 4.55 µg/mL)	2 (≈ 9.11 µg/mL)	1 (≈ 4.55 µg/mL)	1 (≈ 4.55 µg/mL)	0.316	0.319	9.4	4.68	4.69	76
CC[C@H](C)[C@H](NC(=O)[C@H](C)NC(=O)CNC(=O)[C@H](Cc1ccccc1)NC(=O)[C@H](CC(N)=O)NC(=O)[C@@H]1CCCN1C(=O)[C@H](CO)NC(=O)[C@H](CO)NC(=O)[C@H](Cc1c[nH]cn1)NC(=O)[C@H](CCCNC(=N)N)NC(=O)[C@H](CC(C)C)NC(=O)[C@H](Cc1ccccc1)NC(=O)[C@H](CC(N)=O)NC(=O)[C@H](C)NC(=O)[C@H](CC(C)C)NC(=O)[C@H](CCCNC(=N)N)NC(=O)[C@H](CCC(N)=O)NC(=O)[C@@H](NC(=O)[C@H](C)NC(=O)[C@@H]1CSSC[C@H](NC(=O)[C@H](CCCCN)NC(=O)CC[C@H](NC(=O)CCCCCCCCCCCCCCCCCCC(=O)O)C(=O)O)C(=O)N[C@@H](CC(N)=O)C(=O)N[C@@H]([C@@H](C)O)C(=O)N[C@@H](C)C(=O)N[C@@H]([C@@H](C)O)C(=O)N1)[C@@H](C)O)C(=O)N1CCC[C@H]1C(=O)N[C@@H](CO)C(=O)N[C@@H](CO)C(=O)N[C@H](C(=O)N1CCC[C@H]1C(=O)N[C@H](C(=O)NCC(=O)N[C@@H](CO)C(=O)N[C@@H](CCC(=O)O)C(=O)N[C@H](C(=O)N[C@@H](Cc1ccc(O)cc1)C(N)=O)[C@@H](C)O)C(C)C)[C@@H](C)O [Peptide 11] ({C20 diacid-γGlu}-KCNTATCATQRLANFLRHSSPNFGAIPSSTPVGSETY-NH2; disulfide 2-7)	≥ 200	≥ 200	≥ 200	≥ 200	≥ 200	≥ 200	≥ 200	0.186	0.186	11	1.17	1.17	44
